# In patent publication US11021481B2, “Substituted isoindolin-1-ones and 2,3-dihydro-1h-pyrrolo[3,4-c]pyridin-1-ones as HPK1 antagonists” (Nimbus Saturn, Inc., priority 2019, dated 2021):
# pIC50: −log10 of the molar value.
# Molecular target: HPK1 (Homo sapiens (Human), UniProt Q92918)
# Assay: HPK1 biochemical enzyme assay (microfluidic mobility shift assay)
# Details: 1.5 nM HPK1, ATP 1 mM final, 30 min preincubation, 60 min at RT, Caliper EZ Reader; read-out: HPK1 1000UMATP caliper IC50
# Procedure, shortened: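 Ten-point compound titrations (top 3 μM final) preincubated 30 min with HPK1 and substrate, then reaction started with 1 mM ATP and 1 μM substrate, 5 mM MgCl2. After 60 min at RT, reaction terminated and product measured by microfluidic mobility shift.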
# HPK1, sequence (Q92918 whole entry): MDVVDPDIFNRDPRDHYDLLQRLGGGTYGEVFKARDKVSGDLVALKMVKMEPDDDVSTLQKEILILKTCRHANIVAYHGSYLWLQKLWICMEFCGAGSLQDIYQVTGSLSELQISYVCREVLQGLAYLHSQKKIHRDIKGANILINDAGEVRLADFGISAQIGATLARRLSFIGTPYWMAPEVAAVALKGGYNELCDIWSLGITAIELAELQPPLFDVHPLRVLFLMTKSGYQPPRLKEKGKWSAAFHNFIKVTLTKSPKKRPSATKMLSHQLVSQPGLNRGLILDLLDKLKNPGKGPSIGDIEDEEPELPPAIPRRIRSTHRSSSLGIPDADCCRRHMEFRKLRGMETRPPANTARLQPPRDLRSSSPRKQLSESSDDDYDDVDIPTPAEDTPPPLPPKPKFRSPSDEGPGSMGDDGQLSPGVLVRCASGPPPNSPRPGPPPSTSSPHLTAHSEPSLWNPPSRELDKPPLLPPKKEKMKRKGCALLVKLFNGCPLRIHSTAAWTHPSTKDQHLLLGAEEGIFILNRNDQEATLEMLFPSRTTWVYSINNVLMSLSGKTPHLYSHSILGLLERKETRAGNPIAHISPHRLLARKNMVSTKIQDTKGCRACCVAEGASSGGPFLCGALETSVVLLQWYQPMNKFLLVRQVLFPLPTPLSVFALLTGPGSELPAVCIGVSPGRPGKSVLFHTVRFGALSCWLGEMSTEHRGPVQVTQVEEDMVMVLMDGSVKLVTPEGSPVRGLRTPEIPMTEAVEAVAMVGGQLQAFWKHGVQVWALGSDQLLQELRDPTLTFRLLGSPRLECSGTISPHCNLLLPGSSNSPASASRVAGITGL
row,pIC50,Compound
1,< 6.00,"Cc1ccc2c(-c3ncc(Nc4ccc(N5CCN(C)CC5)cn4)c4c3CNC4=O)c(C)[nH]c2n1 [I-17, 4-(2,6-dimethyl-1H-pyrrolo[2,3-b]pyridin-3-yl)-7-[[5-(4-methylpiperazin-1-yl)-2-pyridyl]amino]-2,3-dihydropyrrolo [3,4-c]pyridin-1-one]"
2,> 7.00,"CN1CCN(c2ccc(Nc3cnc(-c4ccnc5c4ccn5C)c4c3C(=O)NC4)nc2)CC1 [I-18, 7-[[5-(4-methylpiperazin-1-yl)-2-pyridyl]amino]-4-(1-methylpyrrolo [2,3-b]pyridin-4-yl)-2,3-dihydropyrrolo [3,4-c]pyridin-1-one]"
3,> 7.00,"Cc1c[nH]c2nccc(-c3ncc(Nc4ccc(N5CCN(C)CC5)cn4)c4c3CNC4=O)c12 [I-19, 7-[[5-(4-methylpiperazin-1-yl)-2-pyridyl]amino]-4-(3-methyl-1H-pyrrolo[2,3-b]pyridin-4-yl)-2,3-dihydropyrrolo [3,4-c]pyridin-1-one]"
4,> 7.00,"CN1CCN(c2ccc(Nc3cnc(-c4ccnc5[nH]ccc45)c4c3C(=O)NC4)nc2)CC1 [I-20, 7-[[5-(4-methylpiperazin-1-yl)-2-pyridyl]amino]-4-(1H-pyrrolo[2,3-b]pyridin-4-yl)-2,3-dihydropyrrolo [3,4-c]pyridin-1-one]"
5,> 7.00,"CN1CCN(c2ccc(Nc3ccc(-c4c[nH]c5ncccc45)c4c3C(=O)NC4)nc2)CC1 [I-21, 7-[[5-(4-methylpiperazin-1-yl)-2-pyridyl]amino]-4-(1H-pyrrolo[2,3-b]pyridin-3-yl)-isoindolin-1-one]"
6,6.00 to 7.00,"CN1CCN(c2ccc(Nc3ccc(-c4cn(C)c5ncccc45)c4c3C(=O)NC4)nc2)CC1 [I-22, 7-[[5-(4-methylpiperazin-1-yl)-2-pyridyl]amino]-4-(1-methylpyrrolo [2,3-b]pyridin-3-yl)-isoindolin-1-one]"
7,6.00 to 7.00,"Cc1ccc2c(-c3ccc(Nc4ccc(N5CCN(C)CC5)cn4)c4c3CNC4=O)c[nH]c2c1 [I-23, 4-(6-methyl-1H-indol-3-yl)-7-[[5-(4-methylpiperazin-1-yl)-2-pyridyl]amino]isoindolin-1-one]"
8,> 7.00,"CN1CCN(c2ccc(Nc3ccc(-c4c[nH]c5ccncc45)c4c3C(=O)NC4)nc2)CC1 [I-24, 7-((5-(4-methylpiperazin-1-yl)pyridin-2-yl)amino)-4-(1H-pyrrolo[3,2-c]pyridin-3-yl)isoindolin-1-one]"
9,6.00 to 7.00,"CN1CCN(c2ccc(Nc3ccc(-c4cccc5nccn45)c4c3C(=O)NC4)nc2)CC1 [I-25, 4-imidazo[1,2-a]pyridin-5-yl-7-[[5-(4-methylpiperazin-1-yl)-2-pyridyl]amino] isoindolin-1-one]"
10,6.00 to 7.00,"CN1CCN(c2ccc(Nc3ccc(-c4c[nH]c5cccnc45)c4c3C(=O)NC4)nc2)CC1 [I-26, 7-((5-(4-methylpiperazin-1-yl)pyridin-2-yl)amino)-4-(1H-pyrrolo[3,2-b]pyridin-3-yl)isoindolin-1-one]"
11,6.00 to 7.00,"Cc1[nH]c2ncccc2c1-c1ccc(Nc2ccc(N3CCN(C)CC3)cn2)c2c1CNC2=O [I-27, 7-[[5-(4-methylpiperazin-1-yl)-2-pyridyl]amino]-4-(2-methyl-1H-pyrrolo[2,3-b]pyridin-3-yl)-isoindolin-1-one]"
12,> 7.00,"COc1ccc2c(-c3ccc(Nc4ccc(N5CCN(C)CC5)cn4)c4c3CNC4=O)c[nH]c2c1 [I-28, 4-(6-methoxy-1H-indol-3-yl)-7-[[5-(4-methylpiperazin-1-yl)-2-pyridyl]amino] isoindolin-1-one]"
13,> 7.00,"Cc1ccc2c(-c3ccc(Nc4ccc(N5CCN(C)CC5)cn4)c4c3CNC4=O)c[nH]c2n1 [I-29, 7-[[5-(4-methylpiperazin-1-yl)-2-pyridyl]amino]-4-(6-methyl-1H-pyrrolo[2,3-b]pyridin-3-yl)-isoindolin-1-one]"
14,6.00 to 7.00,"Cc1cnc2[nH]cc(-c3ccc(Nc4ccc(N5CCN(C)CC5)cn4)c4c3CNC4=O)c2c1 [I-30, 7-[[5-(4-methylpiperazin-1-yl)-2-pyridyl]amino]-4-(5-methyl-1H-pyrrolo[2,3-b]pyridin-3-yl)-isoindolin-1-one]"
15,> 7.00,"CN1CCN(c2ccc(Nc3ccc(-c4ccnc5[nH]ccc45)c4c3C(=O)NC4)nc2)CC1 [I-31, 7-[[5-(4-methylpiperazin-1-yl)-2-pyridyl]amino]-4-(1H-pyrrolo[2,3-b]pyridin-4-yl)-isoindolin-1-one]"
16,> 7.00,"CN1CCN(c2ccc(Nc3ccc(-c4c[nH]c5cc(F)ccc45)c4c3C(=O)NC4)nc2)CC1 [I-32, 4-(6-fluoro-1H-indol-3-yl)-7-[[5-(4-methylpiperazin-1-yl)-2-pyridyl]amino] isoindolin-1-one]"
17,> 7.00,"CN1CCN(c2ccc(Nc3ccc(-c4ccnc5c4ccn5C)c4c3C(=O)NC4)nc2)CC1 [I-33, 7-[[5-(4-methylpiperazin-1-yl)-2-pyridyl]amino]-4-(1-methylpyrrolo [2,3-b]pyridin-4-yl)isoindolin-1-one]"
18,> 7.00,"CCc1[nH]c2ccccc2c1-c1ccc(Nc2ccc(N3CCN(C)CC3)cn2)c2c1CNC2=O [I-34, 4-(2-ethyl-1H-indol-3-yl)-7-[[5-(4-methylpiperazin-1-yl)-2-pyridyl]amino] isoindolin-1-one]"

row,pIC50,Compound
1,6.00 to 7.00,"CN1CCN(c2ccc(Nc3ccc(-c4ccn5ccnc5c4)c4c3C(=O)NC4)nc2)CC1 [I-35, 4-imidazol[1,2-a]pyridin-7-yl-7-[[5-(4-methylpiperazin-1-yl)-2-pyridyl]amino] isoindolin-1-one]"
2,6.00 to 7.00,"CN1CCN(c2ccc(Nc3ccc(-c4ccn5ncnc5c4)c4c3C(=O)NC4)nc2)CC1 [I-36, 7-[[5-(4-methylpiperazin-1-yl)-2-pyridyl]amino]-4-([1,2,4]triazolo [1,5-a]pyridin-7-yl)isoindolin-1-one]"
3,> 7.00,"Cc1cc2[nH]cc(-c3ccc(Nc4ccc(N5CCN(C)CC5)cn4)c4c3CNC4=O)c2cn1 [I-37, 7-[[5-(4-methylpiperazin-1-yl)-2-pyridyl]amino]-4-(6-methyl-1H-pyrrolo[3,2-c]pyridin-3-yl)isoindolin-1-one]"
4,> 7.00,"Cc1cc2c(-c3ccc(Nc4ccc(N5CCN(C)CC5)cn4)c4c3CNC4=O)ccnc2[nH]1 [I-38, 7-[[5-(4-methylpiperazin-1-yl)-2-pyridyl]amino]-4-(2-methyl-1H-pyrrolo[2,3-b]pyridin-4-yl)isoindolin-1-one]"
5,> 7.00,"CN1CCN(c2ccc(Nc3ccc(-c4cnc5ccccn45)c4c3C(=O)NC4)nc2)CC1 [I-39, 4-(imidazo[1,2-a]pyridin-3-yl)-7-((5-(4-methylpiperazin-1-yl)pyridin-2-yl)amino)isoindolin-1-one]"
6,> 7.00,"CN1CCN(c2ccc(Nc3ccc(-c4c(-c5ccccc5)[nH]c5ccccc45)c4c3C(=O)NC4)nc2)CC1 [I-40, 7-[[5-(4-methylpiperazin-1-yl)-2-pyridyl]amino]-4-(2-phenyl-1H-indol-3-yl)isoindolin-1-one]"
7,> 7.00,"CN1CCN(c2ccc(Nc3ccc(-c4cccc5[nH]ccc45)c4c3C(=O)NC4)nc2)CC1 [I-41, 4-(1H-indol-4-yl)-7-[[5-(4-methylpiperazin-1-yl)-2-pyridyl]amino] isoindolin-1-one]"
8,> 7.00,"Cc1c[nH]c2nccc(-c3ccc(Nc4ccc(N5CCN(C)CC5)cn4)c4c3CNC4=O)c12 [I-42, 7-[[5-(4-methylpiperazin-1-yl)-2-pyridyl]amino]-4-(3-methyl-1H-pyrrolo[2,3-b]pyridin-4-yl)isoindolin-1-one]"
9,> 7.00,Cn1ccc2c(-c3ccc(Nc4ccc(N5CCNCC5)cn4)c4c3CNC4=O)ccnc21 [I-43]
10,6.00 to 7.00,"CN1CCN(c2ccc(Nc3ccc(-c4cnc5c(ccn5C)c4)c4c3C(=O)NC4)nc2)CC1 [I-44, 7-[[5-(4-methylpiperazin-1-yl)-2-pyridyl]amino]-4-(1-methylpyrrolo [2,3-b]pyridin-5-yl)isoindolin-1-one]"
11,> 7.00,"CN1CCN(c2ccc(Nc3ccc(-c4cnc5[nH]ccc5c4)c4c3C(=O)NC4)nc2)CC1 [I-45, 7-[[5-(4-methylpiperazin-1-yl)-2-pyridyl]amino]-4-(1H-pyrrolo[2,3-b]pyridin-5-yl)isoindolin-1-one]"
12,> 7.00,"CN1CCN(c2ccc(Nc3ccc(-c4c[nH]c5ccccc45)c4c3C(=O)NC4)nc2)CC1 [I-46, 4-(1H-indol-3-yl)-7-[[5-(4-methylpiperazin-1-yl)-2-pyridyl]amino] isoindolin-1-one]"
13,> 7.00,"COCCn1ccc2c(-c3ccc(Nc4ccc(N5CCN(C)CC5)cn4)c4c3CNC4=O)ccnc21 [I-47, 4-[1-(2-methoxyethyl)pyrrolo[2,3-b]pyridin-4-yl]-7-[[5-(4-methylpiperazin-1-yl)-2-pyridyl]amino] isoindolin-1-one]"
14,6.00 to 7.00,"CC(C)n1ccc2c(-c3ccc(Nc4ccc(N5CCN(C)CC5)cn4)c4c3CNC4=O)ccnc21 [I-48, 4-(1-isopropylpyrrolo [2,3-b]pyridin-4-yl)-7-[[5-(4-methylpiperazin-1-yl)-2-pyridyl]amino] isoindolin-1-one]"
15,> 7.00,CCn1ccc2c(-c3ccc(Nc4ccc(N5CCN(C)CC5)cn4)c4c3CNC4=O)ccnc21 [I-49]
16,6.00 to 7.00,"Cc1nc2ccccn2c1-c1ccc(Nc2ccc(N3CCN(C)CC3)cn2)c2c1CNC2=O [I-50, 4-(2-methylimidazo [1,2-a]pyridin-3-yl-)-7-[[5-(4-methylpiperazin-1-yl)-2-pyridyl]amino] isoindolin-1-1-one]"
17,> 7.00,"Cc1ccc2ncc(-c3ccc(Nc4ccc(N5CCN(C)CC5)cn4)c4c3CNC4=O)n2c1 [I-51, 4-(6-methylimidazo [1,2-a]pyridin-3-yl-)-7-[[5-(4-methylpiperazin-1-yl)-2-pyridyl]amino] isoindolin-1-1-one]"
18,> 7.00,"Cc1cccn2c(-c3ccc(Nc4ccc(N5CCN(C)CC5)cn4)c4c3CNC4=O)cnc12 [I-52, 4-(8-methylimidazo [1,2-a]pyridin-3-yl-)-7-[[5-(4-methylpiperazin-1-yl)-2-pyridyl]amino] isoindolin-1-1-one]"
